The nature of this series: CHI Log D procedure. The series is classed as physicochemical.

Each structure is given as a SMILES string.

For the compound `CC(=O)N[C@@H](Cc1ccccc1)C(=O)N[C@@H](CC(=O)O)C(=O)N[C@@H](C)C(=O)N[C@]1(C)CCCCCCC=CCOC(=O)N2CC[C@@](C(=O)N[C@@H](Cc3ccccc3)C(=O)N[C@@H](Cc3c[nH]c4ccccc34)C(=O)N[C@@H](CCC(N)=O)C(N)=O)(C2)NC(=O)[C@H](C(C)C)NC(=O)[C@H](CC2CCCCC2)NC(=O)[C@H](C)NC(=O)[C@H](C)NC(=O)[C@H](CC(=O)O)NC(=O)[C@H](CC(=O)O)NC1=O` (single isomer, unassigned) [I-75, Ac-Phe-Asp-Ala-R8-Asp-Asp-Ala-Ala-Cha-Val-PyrS-Phe-Trp-Gln-NH2], the “CHI Log D” value (pH 7.4) worked out at 1.376.

Turning to `CC(=O)N[C@@H](Cc1ccccc1)C(=O)N[C@@H](CC(=O)O)C(=O)N[C@@H](C)C(=O)N[C@]1(C)CCCCCCC=CCOC(=O)N2CC[C@@](C(=O)N[C@@H](Cc3ccccn3)C(=O)N[C@@H](Cc3c[nH]c4ccccc34)C(=O)N[C@@H](CCC(N)=O)C(N)=O)(C2)NC(=O)[C@H](C(C)C)NC(=O)[C@H](Cc2ccccc2)NC(=O)[C@H](C)NC(=O)[C@H](C)NC(=O)[C@H](CC(=O)O)NC(=O)[C@H](CC(=O)O)NC1=O` (single isomer, unassigned) [I-80, Ac-Phe-Asp-Ala-R8-Asp-Asp-Ala-Ala-Phe-Val-PyrS-2PyrA-Trp-Gln-NH2], under “pH 7.4, CHI Log D”, the chromatographic logD – broadly, lipophilicity estimated from chromatographic retention – was determined as 1.04.

Regarding `CC(=O)N[C@@H](Cc1ccccc1)C(=O)N[C@@H](CC(=O)O)C(=O)N[C@@H](C)C(=O)N[C@]1(C)CCCCCCC=CCOC(=O)N2CC[C@@](C(=O)N[C@@H](Cc3cccnc3)C(=O)N[C@@H](Cc3c[nH]c4ccccc34)C(=O)N[C@@H](CCC(N)=O)C(N)=O)(C2)NC(=O)[C@H](C(C)C)NC(=O)[C@H](Cc2ccccc2)NC(=O)[C@H](C)NC(=O)[C@H](C)NC(=O)[C@H](CC(=O)O)NC(=O)[C@H](CC(=O)O)NC1=O` (single isomer, unassigned) [I-82, Ac-Phe-Asp-Ala-R8-Asp-Asp-Ala-Ala-Phe-Val-PyrS-3PyrA-Trp-Gln-NH2], under “pH 7.4, CHI Log D”, the chromatographic logD came to 1.

With `CC(=O)N[C@@H](Cc1ccccc1)C(=O)N[C@@H](CC(=O)O)C(=O)N[C@@H](C)C(=O)N[C@]1(C)CCCCCCC=CCOC(=O)N2CC[C@@](C(=O)N[C@@H](Cc3cccnc3)C(=O)N[C@@H](Cc3c[nH]c4ccccc34)C(=O)N[C@@H](CCC(N)=O)C(N)=O)(C2)NC(=O)[C@H](C(C)C)NC(=O)[C@H](Cc2ccccc2)NC(=O)[C@H](C)NC(=O)[C@H](C)NC(=O)[C@H](CC(=O)O)NC(=O)[C@H](CC(=O)O)NC1=O` (single isomer, unassigned) [I-83, Ac-Phe-Asp-Ala-R8-Asp-Asp-Ala-Ala-Phe-Val-PyrS-3PyrA-Trp-Gln-NH2], the “CHI Log D” value (pH 7.4) was found to be 1.032.

As to `CC(=O)N[C@@H](Cc1ccccc1)C(=O)N[C@@H](CC(=O)O)C(=O)N[C@@H](C)C(=O)N[C@]1(C)CCCCCCC=CCOC(=O)N2CC[C@@](C(=O)N[C@@H](Cc3ccncc3)C(=O)N[C@@H](Cc3c[nH]c4ccccc34)C(=O)N[C@@H](CCC(N)=O)C(N)=O)(C2)NC(=O)[C@H](C(C)C)NC(=O)[C@H](Cc2ccccc2)NC(=O)[C@H](C)NC(=O)[C@H](C)NC(=O)[C@H](CC(=O)O)NC(=O)[C@H](CC(=O)O)NC1=O` (single isomer, unassigned) [I-84, Ac-Phe-Asp-Ala-R8-Asp-Asp-Ala-Ala-Phe-Val-PyrS-4PyrA-Trp-Gln-NH2], where the note is “pH 7.4, CHI Log D”, the chromatographic logD stood at 0.985.

In the case of `CC(=O)N[C@@H](Cc1ccccc1)C(=O)N[C@@H](CC(=O)O)C(=O)N[C@@H](C)C(=O)N[C@]1(C)CCCCCCC=CCOC(=O)N2CC[C@@](C(=O)N[C@@H](Cc3ccncc3)C(=O)N[C@@H](Cc3c[nH]c4ccccc34)C(=O)N[C@@H](CCC(N)=O)C(N)=O)(C2)NC(=O)[C@H](C(C)C)NC(=O)[C@H](Cc2ccccc2)NC(=O)[C@H](C)NC(=O)[C@H](C)NC(=O)[C@H](CC(=O)O)NC(=O)[C@H](CC(=O)O)NC1=O` (single isomer, unassigned) [I-85, Ac-Phe-Asp-Ala-R8-Asp-Asp-Ala-Ala-Phe-Val-PyrS-4PyrA-Trp-Gln-NH2], the “CHI Log D” value (pH 7.4) came out at 0.998.

With `CC(=O)N[C@@H](Cc1ccccc1)C(=O)N[C@@H](CC(=O)O)C(=O)N[C@@H](C)C(=O)N[C@]1(C)CCCCCCC=CCOC(=O)N2CC[C@@](C(=O)N[C@@H](Cc3ccccc3)C(=O)N[C@@H](Cc3c[nH]c4ccccc34)C(=O)N[C@@H](CCC(N)=O)C(N)=O)(C2)NC(=O)[C@H](C(C)C)NC(=O)[C@H](Cc2cccnc2)NC(=O)[C@H](C)NC(=O)[C@H](C)NC(=O)[C@H](CC(=O)O)NC(=O)[C@H](CC(=O)O)NC1=O` (single isomer, unassigned) [I-87, Ac-Phe-Asp-Ala-R8-Asp-Asp-Ala-Ala-3PyrA-Val-PyrS-Phe-Trp-Gln-NH2], the chromatographic logD (pH 7.4, CHI Log D) came out at 1.15.

As to `CC(=O)N[C@@H](Cc1ccccc1)C(=O)N[C@@H](CC(=O)O)C(=O)N[C@@H](C)C(=O)N[C@]1(C)CCCCCCC=CCOC(=O)N2CC[C@@](C(=O)N[C@@H](Cc3ccccc3)C(=O)N[C@@H](Cc3c[nH]c4ccccc34)C(=O)N[C@@H](CCC(N)=O)C(N)=O)(C2)NC(=O)[C@H](C(C)C)NC(=O)[C@H](Cc2cccnc2)NC(=O)[C@H](C)NC(=O)[C@H](C)NC(=O)[C@H](CC(=O)O)NC(=O)[C@H](CC(=O)O)NC1=O` (single isomer, unassigned) [I-88, Ac-Phe-Asp-Ala-R8-Asp-Asp-Ala-Ala-3PyrA-Val-PyrS-Phe-Trp-Gln-NH2], the “CHI Log D” value (pH 7.4) amounted to 1.239.

`CC(=O)N[C@@H](Cc1ccccc1)C(=O)N[C@@H](CC(=O)O)C(=O)N[C@@H](C)C(=O)N[C@]1(C)CCCCCCC=CCOC(=O)N2CC[C@@](C(=O)N[C@@H](Cc3ccc(C(N)=O)cc3)C(=O)N[C@@H](Cc3c[nH]c4ccccc34)C(=O)N[C@@H](CCC(N)=O)C(N)=O)(C2)NC(=O)[C@H](C(C)C)NC(=O)[C@H](Cc2ccccc2)NC(=O)[C@H](C)NC(=O)[C@H](C)NC(=O)[C@H](CC(=O)O)NC(=O)[C@H](CC(=O)O)NC1=O` (single isomer, unassigned) [I-90, Ac-Phe-Asp-Ala-R8-Asp-Asp-Ala-Ala-Phe-Val-PyrS-4CBMF-Trp-Gln-NH2]: the chromatographic logD (pH 7.4, CHI Log D) was 0.958.

Under “pH 7.4, CHI Log D”, `CC(=O)N[C@@H](Cc1ccccc1)C(=O)N[C@@H](CC(=O)O)C(=O)N[C@@H](C)C(=O)N[C@]1(C)CCCCCCC=CCOC(=O)N2CC[C@@](C(=O)N[C@@H](CC3CCCC3)C(=O)N[C@@H](Cc3c[nH]c4ccccc34)C(=O)N[C@@H](CCC(N)=O)C(N)=O)(C2)NC(=O)[C@H](C(C)C)NC(=O)[C@H](Cc2ccccc2)NC(=O)[C@H](C)NC(=O)[C@H](C)NC(=O)[C@H](CC(=O)O)NC(=O)[C@H](CC(=O)O)NC1=O` (single isomer, unassigned) [I-93, Ac-Phe-Asp-Ala-R8-Asp-Asp-Ala-Ala-Phe-Val-PyrS-CypA-Trp-Gln-NH2] returned a chromatographic logD of 1.32.

With `CC(=O)N[C@@H](Cc1ccccc1)C(=O)N[C@@H](CC(=O)O)C(=O)N[C@@H](C)C(=O)N[C@]1(C)CCCCCCC=CCOC(=O)N2CC[C@@](C(=O)N[C@@H](Cc3ccccc3)C(=O)N[C@@H](Cc3c[nH]c4ccccc34)C(=O)N[C@@H](CCC(N)=O)C(N)=O)(C2)NC(=O)[C@H](C(C)C)NC(=O)[C@H](CC2CCCC2)NC(=O)[C@H](C)NC(=O)[C@H](C)NC(=O)[C@H](CC(=O)O)NC(=O)[C@H](CC(=O)O)NC1=O` (single isomer, unassigned) [I-96, Ac-Phe-Asp-Ala-R8-Asp-Asp-Ala-Ala-CypA-Val-PyrS-Phe-Trp-Gln-NH2], the “CHI Log D” value (pH 7.4) stood at 1.343.

Under “pH 7.4”, `CC(=O)N[C@@H](Cc1ccccc1)C(=O)N[C@@H](CC(=O)O)C(=O)N[C@@H](C)C(=O)N[C@]1(C)CCCCCCC=CCOC(=O)N2CC[C@@](C(=O)N[C@@H](Cc3ccccc3)C(=O)N[C@@H](Cc3c[nH]c4ccccc34)C(=O)N[C@@H](CCC(N)=O)C(N)=O)(C2)NC(=O)[C@H](C(C)C)NC(=O)[C@H](Cc2ccccc2)NC(=O)[C@H](C)NC(=O)[C@H](C)NC(=O)[C@H](CCc2ccccc2)NC(=O)[C@H](CC(=O)O)NC1=O` (single isomer, unassigned) [I-98, Ac-Phe-Asp-Ala-R8-Asp-hPhe-Ala-Ala-Phe-Val-PyrS-Phe-Trp-Gln-NH2] gave a chromatographic logD of 2.08.

For the compound `CC(=O)N[C@@H](Cc1ccccc1)C(=O)N[C@@H](CC(=O)O)C(=O)N[C@@H](C)C(=O)N[C@]1(C)CCCCCCC=CCOC(=O)N2CC[C@@](C(=O)N[C@@H](Cc3ccccc3)C(=O)N[C@@H](Cc3c[nH]c4ccccc34)C(=O)N[C@@H](CCC(N)=O)C(N)=O)(C2)NC(=O)[C@H](C(C)C)NC(=O)[C@H](Cc2ccccc2)NC(=O)[C@H](C)NC(=O)[C@H](C)NC(=O)[C@H](Cc2ccccc2)NC(=O)[C@H](CC(=O)O)NC1=O` (single isomer, unassigned) [I-99, Ac-Phe-Asp-Ala-R8-Asp-Phe-Ala-Ala-Phe-Val-PyrS-Phe-Trp-Gln-NH2], the chromatographic logD (pH 7.4) is 1.99.

The compound `COc1cccc(C[C@H](NC(=O)[C@]23CCN(C2)C(=O)OCC=CCCCCCC[C@@](C)(NC(=O)[C@H](C)NC(=O)[C@H](CC(=O)O)NC(=O)[C@H](Cc2ccccc2)NC(C)=O)C(=O)N[C@@H](CC(=O)O)C(=O)N[C@@H](CC(=O)O)C(=O)N[C@@H](C)C(=O)N[C@@H](C)C(=O)N[C@@H](Cc2ccccc2)C(=O)N[C@@H](C(C)C)C(=O)N3)C(=O)N[C@@H](Cc2c[nH]c3ccccc23)C(=O)N[C@@H](CCC(N)=O)C(N)=O)c1` (single isomer, unassigned) [I-101, Ac-Phe-Asp-Ala-R8-Asp-Asp-Ala-Ala-Phe-Val-PyrS-3OMeF-Trp-Gln-NH2] had a chromatographic logD (pH 7.4, CHI Log D) of 1.33.

Take `COc1cccc(C[C@H](NC(=O)[C@]23CCN(C2)C(=O)OCC=CCCCCCC[C@@](C)(NC(=O)[C@H](C)NC(=O)[C@H](CC(=O)O)NC(=O)[C@H](Cc2ccccc2)NC(C)=O)C(=O)N[C@@H](CC(=O)O)C(=O)N[C@@H](CC(=O)O)C(=O)N[C@@H](C)C(=O)N[C@@H](C)C(=O)N[C@@H](Cc2ccccc2)C(=O)N[C@@H](C(C)C)C(=O)N3)C(=O)N[C@@H](Cc2c[nH]c3ccccc23)C(=O)N[C@@H](CCC(N)=O)C(N)=O)c1` (single isomer, unassigned) [I-102, Ac-Phe-Asp-Ala-R8-Asp-Asp-Ala-Ala-Phe-Val-PyrS-3OMeF-Trp-Gln-NH2]: the “CHI Log D” value (pH 7.4) came out at 1.274.

Source of the values: patent US20240116985A1, “STAPLED PEPTIDES AND METHODS THEREOF” (priority 2020, published 2024).
